The source of these data is the Kinase Knowledgebase extract (Sharma et al. 2016).

pKi: −log10 of the molar value. Several values for one entry are separate records, joined by “and”; a condition that tells them apart may be missing. Identical values can stand only once. Where only a bound is given, the exact number is not on record here.

The target in this assay is PIK3CG (human) (UniProt P48736). Nature of the assay: Inhibition of PIK3CG Kinase Activity.
Chain of PIK3CG (human) (P48736 whole entry, looked up): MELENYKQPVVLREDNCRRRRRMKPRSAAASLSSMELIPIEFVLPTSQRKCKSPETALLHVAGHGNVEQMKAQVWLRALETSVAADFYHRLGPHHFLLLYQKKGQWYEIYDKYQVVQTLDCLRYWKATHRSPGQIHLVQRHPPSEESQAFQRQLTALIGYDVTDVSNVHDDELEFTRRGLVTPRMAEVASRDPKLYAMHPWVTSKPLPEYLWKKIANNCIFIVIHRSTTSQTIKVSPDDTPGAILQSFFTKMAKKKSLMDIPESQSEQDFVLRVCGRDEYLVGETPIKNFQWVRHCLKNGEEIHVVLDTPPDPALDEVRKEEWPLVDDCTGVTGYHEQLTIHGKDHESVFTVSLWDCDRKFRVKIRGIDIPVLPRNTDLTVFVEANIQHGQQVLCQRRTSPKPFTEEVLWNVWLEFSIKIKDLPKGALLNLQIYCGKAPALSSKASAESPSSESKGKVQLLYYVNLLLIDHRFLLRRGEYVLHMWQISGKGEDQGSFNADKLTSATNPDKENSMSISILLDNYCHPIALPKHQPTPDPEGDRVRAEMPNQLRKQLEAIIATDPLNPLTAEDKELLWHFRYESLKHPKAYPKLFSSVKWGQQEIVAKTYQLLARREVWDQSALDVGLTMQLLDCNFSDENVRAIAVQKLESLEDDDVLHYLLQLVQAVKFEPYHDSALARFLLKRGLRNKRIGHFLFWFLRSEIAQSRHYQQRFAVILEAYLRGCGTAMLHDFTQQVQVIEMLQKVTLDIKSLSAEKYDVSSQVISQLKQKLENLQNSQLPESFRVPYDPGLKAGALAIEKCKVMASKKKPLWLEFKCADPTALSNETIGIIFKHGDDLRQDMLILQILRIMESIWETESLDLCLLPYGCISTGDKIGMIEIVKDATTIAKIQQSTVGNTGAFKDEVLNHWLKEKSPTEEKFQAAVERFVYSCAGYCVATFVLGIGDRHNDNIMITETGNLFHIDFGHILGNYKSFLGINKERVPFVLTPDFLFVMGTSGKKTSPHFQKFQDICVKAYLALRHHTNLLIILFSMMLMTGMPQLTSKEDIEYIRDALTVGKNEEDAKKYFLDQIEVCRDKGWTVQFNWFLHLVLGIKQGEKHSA
A word on the pKi: it is the Ki on a negative log10 scale, so that one unit is a factor of ten. A low value points to a high Ki. For the compound `COc1cc(OC)c(-c2cc(C)c3c(n2)C(C)N(c2cnn(CC(F)(F)F)c2)C3=O)cn1` (centres undefined), the pKi was over 7.00.

Take `Cc1cc(-c2cncc(OC(F)F)c2)nc2c1C(=O)N(c1cnn(C)c1)C2C` (centres undefined): the pKi is over 7.00.

The compound `COc1cc(-c2cc(C)c3c(n2)C2(CCOCC2)N(c2cnn(CC(F)(F)F)c2)C3=O)cnc1OC(C)C` had a pKi of over 7.00.

As for `COc1cncc(-c2cc(C)c3c(c2)C(C)N(c2cnn(CC(F)(F)F)c2)C3=O)c1` (centres undefined), the negative-log Ki (pKi) was over 7.00.

`COc1cc(-c2cc(C)c3c(n2)C(C)(C)N(c2cnn(CC(F)F)c2)C3=O)cnc1C`: the pKi is over 7.00.

`COc1cc(-c2ccc3c(n2)[C@@H](C)N(c2cc[nH]n2)C3=O)cnc1OC` had a pKi of over 7.00.

Compound `COc1cncc(-c2cc(C)c3c(n2)CN(c2cnn(C(C)(C)C#N)c2)C3=O)c1` had a pKi of over 7.00.

On to `COCCn1ccc(N2Cc3nc(-c4cnc(OC)c(OC)c4)ccc3C2=O)n1`, for which the pKi is 6.31 to 7.00.

`Cc1cc(-c2cncc([S+](C)[O-])c2)nc2c1C(=O)N(c1cnn(CC(F)(F)F)c1)C2(C)C` (centres undefined): the pKi is 6.31 to 7.00 and > 7.00.

Consider `COc1cc(-c2ccc3c(n2)C(C)N(c2ccn(C)n2)C3=O)cnc1OC` (centres undefined), for which the pKi was over 7.00.

In turn, `COc1cc(-c2ccc3c(c2)CN(c2cnn(CC4COc5ccccc5O4)c2)C3=O)cnc1OC` (centres undefined) had a pKi of 6.31 to 7.00.

`CCc1cc(-c2cnc(OC)c(OC)c2)nc2c1C(=O)N(c1cn[nH]c1)C2(C)C` showed a pKi of over 7.00.

`Cc1cc(-c2cnc3ccccc3c2)nc2c1C(=O)N(c1cn[nH]c1)C2` showed a pKi of 6.31 to 7.00.

Compound `COc1cc(-c2ccc3c(n2)C(C)N(c2cn[nH]c2)C3=O)cnc1OC` (centres undefined) gave a pKi of over 7.00.

Regarding `CCOc1cncc(-c2cc(C)c3c(n2)[C@H](C)N(c2cnn(CC(F)(F)F)c2)C3=O)c1`, the pKi was over 7.00.

As for `COc1cc(-c2cc(C)c3c(n2)C(C)N(c2cnn(CC(F)(F)F)c2)C3=O)cnc1C` (centres undefined), the negative-log Ki (pKi) was over 7.00.

Consider `CCOc1cc(-c2cc(C)c3c(n2)CN(c2ccon2)C3=O)cnc1OCC`, for which the pKi was over 7.00.

`COc1cc(-c2ccc3c(c2)CN(c2cccc(C(N)=O)c2)C3=O)cnc1OC` showed a pKi of over 7.00.

`COc1cc(-c2ccc3c(n2)CN(c2cnn(CCC(=O)O)c2)C3=O)cnc1OC` gave a negative-log Ki (pKi) of over 7.00.

For the compound `COc1cc(-c2ccc3c(n2)C(C)N(c2ccnc(C(C)C#N)c2)C3=O)cnc1OC` (centres undefined), the pKi is over 7.00.

On to `CCn1cc(N2C(=O)c3ccc(-c4cnc(OC)c(OC)c4)nc3[C@H]2C)cn1`, for which the pKi was over 7.00.

In turn, `COc1cc(-c2ccc3c(c2)CN(c2cnn(CC4CCCO4)c2)C3=O)cnc1OC` (centres undefined) had a pKi of 6.31 to 7.00.

Take `COc1cc(-c2cc(C)c3c(n2)CN(c2ccc(C(F)(F)F)nc2)C3=O)cnc1OC`: the pKi was over 7.00.

The compound `COc1ncc(-c2cc(C)c3c(n2)C(C)(C)N(c2cnn(CC(F)(F)F)c2)C3=O)cc1C(=O)NC(C)(C)C` had a negative-log Ki (pKi) of over 7.00.

Regarding `CCOCCOc1ncc(-c2cc(C)c3c(n2)CN(c2cnn(CC(F)(F)F)c2)C3=O)cc1OC`, the pKi was 6.31 to 7.00.

Compound `COc1ncc(-c2cc(C)c3c(n2)CN(c2cnn(C(C)(C)C#N)c2)C3=O)cn1` had a pKi of over 7.00.

In the case of `CNC(=O)c1cncc(-c2cc(C)c3c(n2)C(C)(C)N(c2cnn(CC(F)(F)F)c2)C3=O)c1`, the pKi is over 7.00.

For `COc1cncc(-c2cc(C)c3c(n2)C2(COC2)N(c2cnn(CC(F)(F)F)c2)C3=O)c1`, the pKi is over 7.00.

The compound `COc1cncc(-c2cc(C)c3c(n2)CN(c2cc[nH]n2)C3=O)c1` gave a pKi of over 7.00.

The compound `COc1cc(-c2ccc3c(n2)C(C)N(c2cn(CC(F)(F)F)cn2)C3=O)cnc1OC` (centres undefined) gave a pKi of over 7.00.

For the compound `COc1cc(-c2ccc3c(n2)CN(c2cnn(CCn4cccn4)c2)C3=O)cnc1OC`, the pKi is 6.31 to 7.00.

In turn, `COc1cc(-c2ccc3c(n2)CN(c2cnn(CC(F)(F)F)c2)C3=O)cnc1OC` had a negative-log Ki (pKi) of over 7.00.

`COc1cc(-c2cc(C)c3c(n2)CN(c2nccs2)C3=O)cnc1OC` had a pKi of over 7.00.

Consider `COc1cc(-c2ccc3c(n2)CN(c2ccc(OC(CO)C(F)(F)F)nc2)C3=O)cnc1OC` (centres undefined), for which the pKi is over 7.00.

As to `COc1cc(-c2cc(C)c3c(n2)CN(c2cnn(CC(F)(F)F)c2)C3=O)cnc1O`, the pKi is over 7.00.

In turn, `COc1cc(-c2cc(C)c3c(n2)C(C)(C)N(c2cnn(C[C@@H](C)O)c2)C3=O)cnc1OC` gave a pKi of over 7.00.

`COc1cc(-c2ccc3c(n2)CN(c2cnn(C(CO)C(F)(F)F)c2)C3=O)cnc1OC` (centres undefined): the pKi was over 7.00.

Compound `COc1ncc(-c2cc(C)c3c(n2)CN(c2cnn(CC#N)c2)C3=O)cn1` showed a negative logarithm of the Ki (pKi) of over 7.00.

`COc1cc(-c2ccc3c(n2)CN(c2cncc(CC#N)c2)C3=O)cnc1OC`: the pKi was over 7.00.

Turning to `CCNC(=O)c1cc(-c2cc(C)c3c(n2)C(C)(C)N(c2cnn(CC(F)(F)F)c2)C3=O)cnc1OC`, the negative logarithm of the Ki (pKi) was over 7.00.

Turning to `COc1cc(OC)c(-c2cc(C)c3c(c2)CN(c2cnn(CC(F)(F)F)c2)C3=O)cn1`, the pKi is over 7.00.

With `COc1ncc(-c2cc(C)c3c(n2)C(C)(C)N(c2cnn(CC(F)(F)F)c2)C3=O)cc1C(=O)NC1COC1`, the negative logarithm of the Ki (pKi) is over 7.00.

The compound `COc1cc(-c2cc(C)c3c(n2)CN(c2ccc(OCC(F)(F)F)nc2)C3=O)cnc1OC` showed a pKi of over 7.00.

Consider `CCn1ccc(N2Cc3nc(-c4cnc(OC)c(OC(C)C)c4)cc(C)c3C2=O)n1`, for which the negative-log Ki (pKi) was over 7.00.

As for `COc1cc(-c2ccc3c(n2)CN(c2cnn(CC#N)c2)C3=O)cnc1OC`, the negative logarithm of the Ki (pKi) is over 7.00.

Regarding `COc1cncc(-c2cc(C)c3c(n2)C2(CC2)N(c2cnn(CC(F)(F)F)c2)C3=O)c1`, the pKi was over 7.00.

Compound `COCCOCCOc1ncc(-c2cc(C)c3c(c2)CN(c2cnn(CC(F)(F)F)c2)C3=O)cc1OC` had a negative logarithm of the Ki (pKi) of 6.31 to 7.00.

The compound `COc1cc(-c2cc(C)c3c(n2)C(OCC2CC2)N(c2cnn(CC(F)(F)F)c2)C3=O)cnc1OC` (centres undefined) gave a pKi of over 7.00.

`COc1ncc(-c2cc(C)c3c(n2)CN(c2cnn(CC(F)(F)F)c2)C3=O)cc1OC(C)C` gave a pKi of over 7.00.

Consider `COc1cc(-c2ccc3c(c2)CN(c2cc(C)ns2)C3=O)cnc1OC`, for which the pKi was 6.31 to 7.00.

`COc1cc(-c2ccc3c(n2)[C@H](C)N(c2ccn(C[C@@H](C)O)n2)C3=O)cnc1OC` gave a pKi of over 7.00.

In the case of `COc1cc(-c2ccc3c(n2)CN(c2cnn(CCn4cccc4)c2)C3=O)cnc1OC`, the negative-log Ki (pKi) is over 7.00.

With `N#CCn1cc(N2Cc3cc(-c4cncc(S(N)(=O)=O)c4)ccc3C2=O)cn1`, the pKi was over 7.00.

`CCCNC(=O)c1cncc(-c2cc(C)c3c(n2)C(C)(C)N(c2cnn(CC(F)(F)F)c2)C3=O)c1` gave a pKi of over 7.00.

The compound `COc1cncc(-c2cc(C)c3c(n2)[C@H](C)N(c2cnn(CC(F)(F)F)c2)C3=O)c1` had a pKi of over 7.00.

The compound `COc1cc(-c2ccc3c(n2)CN(c2cncc(CN4CCOCC4)c2)C3=O)cnc1OC` showed a pKi of 6.31 to 7.00.

Regarding `COc1cncc(-c2cc(C)c3c(n2)CN(c2ccn([C@H]4CCOC4)n2)C3=O)c1`, the negative logarithm of the Ki (pKi) was over 7.00.

On to `COc1ncc(-c2cc(C)c3c(n2)C(C)N(c2cnn(CC(F)(F)F)c2)C3=O)cc1OC(F)F` (centres undefined), for which the pKi was over 7.00.

In the case of `Cc1cc(-c2cncc(C(=O)NC(C)(C)C)c2)nc2c1C(=O)N(c1cnn(CC(F)(F)F)c1)C2`, the pKi is over 7.00.

`CCOc1cncc(-c2cc(C)c3c(n2)C2(CCOC2)N(c2cnn(CC(F)(F)F)c2)C3=O)c1` (centres undefined): the pKi was over 7.00.

In the case of `COc1ncc(-c2cc(C)c3c(n2)C(C)(C)N(c2cnn(CC(F)(F)F)c2)C3=O)cc1C(=O)N(C)C`, the negative-log Ki (pKi) was over 7.00.

Compound `COc1cc(-c2ccc3c(n2)[C@@H](C)N(c2ccnc(CC#N)c2)C3=O)cnc1OC` gave a pKi of over 7.00.

As to `CCn1ccc(N2C(=O)c3c(C)cc(-c4cncc(OC(F)F)c4)nc3[C@@H]2C)n1`, the pKi was over 7.00.

Compound `COc1cc(-c2ccc3c(n2)CN(c2ccc(OCC#N)nc2)C3=O)cnc1OC` showed a pKi of 6.31 to 7.00.

As for `COCc1cc(N2Cc3nc(-c4cnc(OC)c(OC)c4)ccc3C2=O)nn1CC(F)(F)F`, the pKi is over 7.00.

With `Cc1cc(-c2cc(OC(F)(F)F)ccc2Cl)nc2c1C(=O)N(c1cnn(CC(F)(F)F)c1)C2`, the pKi is 6.31 to 7.00.

As to `CCC1c2nc(-c3cncc(OC(F)F)c3)cc(C)c2C(=O)N1c1cnn(CC(F)(F)F)c1` (centres undefined), the negative-log Ki (pKi) is over 7.00.

The compound `CCOc1ccc(N2Cc3nc(-c4cnc(OC)c(OC)c4)ccc3C2=O)cn1` gave a pKi of 6.31 to 7.00.

`CCc1n[nH]c(N2Cc3cc(-c4cnc(OC)c(OC)c4)ccc3C2=O)n1` showed a pKi of over 7.00.

On to `COc1cc(-c2ccc3c(n2)C(C)N(c2cnn(C(C)(C)C#N)c2)C3=O)cnc1OC` (centres undefined), for which the pKi is over 7.00.

Consider `CCn1cc(N2Cc3cc(-c4cnc5ccccc5c4)ccc3C2=O)cn1`, for which the pKi is 6.31 to 7.00.

`CCn1ccc(N2C(=O)c3c(C)cc(-c4cncc(OC)c4)nc3[C@H]2C)n1` showed a pKi of over 7.00.

`CCn1cc(N2Cc3nc(-c4cnc(OC)c(OCC(F)F)c4)cc(C)c3C2=O)cn1` showed a pKi of over 7.00.

For `CCn1cc(N2Cc3nc(-c4cncc(OCC(F)(F)F)c4)cc(C)c3C2=O)cn1`, the negative logarithm of the Ki (pKi) was over 7.00.

In turn, `CCOc1ncc(-c2cc(C)c3c(n2)C2(CCCO2)N(c2cnn(CC(F)(F)F)c2)C3=O)cc1OC` (centres undefined) showed a pKi of over 7.00.

Regarding `COc1cc(-c2ccc3c(c2)CN(c2cscn2)C3=O)cnc1OC`, the pKi is 6.31 to 7.00.

The compound `Cc1cc(-c2cncc(OCCF)c2)nc2c1C(=O)N(c1cnn(CC(F)(F)F)c1)C2` showed a pKi of over 7.00.

`COc1cc(-c2ccc3c(n2)CN(c2cnn([C@@H](C)C#N)c2)C3=O)cnc1OC` gave a pKi of over 7.00.

`CCn1cc(N2Cc3nc(-c4cnc(OC)c(OC)c4)cc(C)c3C2=O)cn1` gave a pKi of over 7.00.
